Data from US20200246438A1, “TARGETING GDF6 AND BMP SIGNALING FOR ANTI-MELANOMA THERAPY” (UNIVERSITY OF MASSACHUSETTS, priority 2015, published 2020).
“Also recorded” adds a separate entry of the source.

B1: recombinant GDF6 protein: recombinant GDF6 protein added to culture media; soluble, extracellular BMP ligand (BMP13) (protein, UniProt Q6KF10 336-455, looked up)
Growth/differentiation factor …: TAFASRHGKRHGKKSRLRCSKKPLHVNFKELGWDDWIIAPLEYEAYHCEGVCDFPLRSHLEPTNHAIIQTLMNSMDPGSTPPSCCVPTKLTPISILYIDAGNNVVYKQYEDMVVESCGCR

How the values were obtained:
[1] = test system: A375 melanoma cells; test: growth curves by direct cell counting, A375; assay type: cell-based, human; settings: 10 μM DMH1 vs control media
Procedure: (§1) For growth curves 50,000 live cells were seeded per well in a 6-well tissue culture plate on day 0. The numbers of live cells were calculated every day using an automated cell counter (Nexcelom Bioscience Cellometer Auto T4) following standard procedures. All assays were performed with technical replicates. For clonogenic assays, 3,000 live cells were seeded in a 10 cm tissue culture plate. After 3 weeks, colonies were fixed and stained using bromophenol blue in acetone. ImageJ was used to quantify the number of colonies. In assays with DMH1 treatment, control or DMH1-containing media was replaced every other day. For soft agar assays a 0.5% bottom layer (1:1 with 1% agar and 2×DMEM with 20% FBS) and a 0.3% top layer (1:1 with 0.6% agar and 2×DMEM with 20% FBS) were used. 3,000 live cells per well of a 6-well tissue culture plate were added in the top layer. Media was added initially then replaced every 3 days. After 3 weeks, colonies were stained with nitroblue tetrazolium chloride overnight at 37° C. Once stained, individual wells were photographed, and ImageJ was used to count the number of colonies. All these assays were done in triplicate, and experiments were repeated at least twice. A representative image of each has been shown.

[2] = test system: BMP signaling (phospho-SMAD1); test: Western blot of BMP signaling (phospho-SMAD1) in DMH1-treated A375 cells; assay type: cell-based, human; settings: 10 μM DMH1, Western blot
Procedure: Protein extracts were prepared as previously described (S. D. Epstein LB, Hunte-McDonough B, harris C A, Cytokines: A pratical approach (Balkwill F R., ed). 81-93 (1991)). Extracts were separated on 12% SDS-PAGE gels. Blots were probed with primary antibodies (GDF6 (Sigma PRS4691; 1:1000), phospho-SMAD1/5/8 (Cell Signaling 13820; 1:1000), SMAD1 (Cell Signaling 9743; 1:500), Total SMAD1/5/8 (Santa Cruz sc-6031-R; 1:1000), FLAG (Sigma F3165, 1:2000), GAPDH (Abcam 8245; 1:2000)) overnight at 4° C., washed five times in TBS plus 0.1% Tween (TBST) and then incubated with the appropriate HRP-conjugated secondary antibody (Jackson Labs) for 1 hour at room temperature. Membranes were washed five times in TBST and visualized on autoradiography film after incubating with ECL reagent (Supersignal West Pico or Supersignal West Femto; Thermo Scientific).

[3] = test system: A375 melanoma cells; test: clonogenic growth / colony formation assay; assay type: cell-based, human; settings: A375-EMPTY vs A375-SMAD1DVD cells treated with DMH1
Procedure: as §1

[4] = test system: SKMEL28 melanoma cells; test: growth curves by direct cell counting, SKMEL28; assay type: cell-based, human; settings: SKMEL28 cells treated with DMH1 vs control
Procedure: as §1

[5] = test system: A375 melanoma cells; test: A375 mouse xenografts treated with DMH1, tumor volume; assay type: in vivo; settings: 25 mg/kg DMH1 intraperitoneally every other day vs vehicle
Source text: All animal protocols were approved by the UMMS Institution Animal Care and Use Committee (A-2016, A-2171). Mice were randomly allocated to individual experimental groups. No blinding was done as animal groups were identified by tagging and cage labeling. Animals were excluded, according to pre-established criteria, if the tumor volume reached>1,000 mm^3; if tumor size or location affected the mobility or general health of animal, the animal was euthanized and excluded from the experiment or the complete experiment was terminated. A375 cells stably expressing an EGFP or GDF6 or SMAD1 shRNA and/or empty vector or GDF6-expressing vector or SMAD1DVD-overexpressing vector were subcutaneously injected into the flanks of 6-8-week-old BALB/c nu/nu female mice (Taconic Farms) to produce orthotopic primary tumor. Primary tumor growth was monitored every 3 days with calipers, and the tumor volume was calculated as described previously (C. Gazin, N. Wajapeyee, S. Gobeil, C. M. Virbasius, M. R. Green, An elaborate pathway required for Ras-mediated epigenetic silencing. Nature 449, 1073-1077 (2007)). For GDF6 knockdown, SMAD1 knockdown and epistasis experiments, […] live cells were injected. For GDF6 overexpression experiments, 1×10^6 live cells were injected. […] The growth of the tumor was monitored as described above. […]

[6] = test system: MeWo melanoma cells; test: proliferation of GDF6-knockdown cells supplemented with recombinant GDF6 protein; assay type: cell-based, human; settings: MeWo cells treated with shRNAs targeting GDF6, recombinant GDF6 protein added to culture media

Molecule | cell growth (growth curves) [1] | level of phospho-SMAD1 relative to total SMAD protein [2] | growth defects caused by DMH1 in SMAD1DVD-expressing cells (colony formation) [3] | cell growth (growth curves) [4] | tumor volume / tumor growth [5] | proliferation of GDF6-knockdown cells [6] | proliferation of GDF6-knockdown cells ([6]; listed as recombinant GDF6)
CC(C)Oc1ccc(-c2cnc3c(-c4ccnc5ccccc45)cnn3c2)cc1 [DMH1] | grew more slowly; also recorded: inhibits A375 melanoma cell growth | reduced level of phospho-SMAD1 | reversed by SMAD1DVD | grew more slowly | smaller tumors arose and grew more slowly; also recorded: decreased tumorigenicity; also recorded: abrogates melanoma growth | – | –
B1 | – | – | – | – | – | restored | able to sustain their proliferation
